The subject of one experiment is Her2. The experiment is described as follows: Degradation of Her2 in BT-474 cells, Method 1 (Western blot). The experiment is classed as cell-based, human. The settings on record: 0.5 μM, overnight. Here is the method: A. Cells and Cell Culture Human high-Her2 breast carcinoma BT474 (HTB-20), SK-BR-3 (HTB-30) and MCF-7 breast carcinoma (HTB-22) from American Type Culture Collection, VA, USA were grown in Dulbecco's modified Eagle's medium with 4 mM L-glutamine and antibiotics ([…] penicillin and 100 ug/ml streptomycine; GibcoBRL). To obtain exponential cell growth, cells were trypsinized, counted and seeded at a cell density of 0.5×10^6 cells/ml regularly, every 3 days. All experiments were performed on day 1 after cell passage. B. Degradation of her2 in Cells after Treatment with a Compound of the Invention
BT-474 cells are treated with 0.5 μM, 2 μM, or 5 μM of 17AAG (a positive control) or 0.5 μM, 2 μM, or 5 μM of a compound of the invention overnight in DMEM medium. After treatment, each cytoplasmic sample is prepared from 1×10^6 cells by incubation of cell lysis buffer (#9803, cell Signaling Technology) on ice for 10 minutes. The resulting supernatant used as the cytosol fractions is dissolved with sample buffer for SDS-PAGE and run on a SDS-PAGE gel, blotted onto a nitrocellulose membrane by using semi-dry transfer. Non-specific binding to nitrocellulose is blocked with 5% skim milk in TBS with 0.5% Tween at room temperature for 1 hour, then probed with anti-Her2/ErB2 mAb (rabbit IgG, #2242, Cell Signaling) and anti-Tubulin (T9026, Sigma) as housekeeping control protein. […]
A general note: In western blotting, separated proteins are transferred to a membrane and probed.

The subject of another experiment is Hsp90. The experiment is described as follows: Degradation of Hsp90 client proteins, Method 2: IC50 for Her2 degradation / inhibition of Hsp90 (MV-4-11 cell survival, Cell Counting Kit-8). The experiment is classed as cell-based, human. Particulars: Table 9, MV-4-11 cells, 72 hours, read-out: IC50 Range. A general note: Tetrazolium dyes change colour on reduction, which living cells bring about.

pIC50: −log10 of the molar value.

What is called pIC50 is the negative decadic logarithm of the IC50, by convention in mol/L.

Consider `C=CCNC1=C2C[C@@H](C)C[C@H](OC)[C@H](O)[C@@H](C)/C=C(\C)[C@H](OC(N)=O)[C@@H](OC)/C=C\C=C(/C)C(=O)NC(=CC1=O)C2=O` [Compound 17AAG, 17-allylamino-17-demethoxygeldanamycin], for which, in the experiment on Her2, the “degradation of Her2” value is recorded as “partial degradation”. Take `COCCN(C)c1ccc(-n2c(O)nnc2-c2cc(C(C)C)c(O)cc2O)c[n+]1[O-]` [Compound 3d]: in the experiment on Hsp90, the pIC50 was 6.74.

The values above are taken from patent US9206162B2, “Triazole compounds that modulate Hsp90 activity” (Synta Pharmaceuticals Corp., priority 2006, dated 2015).
